ChEMBL document CHEMBL5390199, “Discovery of novel N-aryl-2-trifluoromethyl-quinazoline-4-amine derivatives as the inhibitors of tubulin polymerization in leukemia cells” (Eur J Med Chem, 2023)
Active and inactive are the calls of the source. The rule behind the calls is not given here.

Assays:
HeLa = test: Cytotoxicity against human HeLa cells assessed as inhibition of cell growth incubated for 48 hrs by MTT assay; assay type: functional, cell-based
LNCaP = test: Cytotoxicity against human LNCaP cells assessed as inhibition of cell growth incubated for 48 hrs by MTT assay; assay type: functional, cell-based
K562 [1] = test: Cytotoxicity against human K562 cells assessed as inhibition of cell growth incubated for 48 hrs by MTT assay; assay type: functional, cell-based; conditions: K562, 48 h
HEL [2] = test: Cytotoxicity against human HEL cells assessed as inhibition of cell growth incubated for 48 hrs by MTT assay; assay type: functional, cell-based
[3] = Cytotoxicity against human L02 cells assessed as inhibition of cell growth incubated for 48 hrs by MTT assay; assay type: toxicity, cell-based
HEL [4] = test: Induction of morphological changes in human HEL cells by fluorescence microscopic analysis; assay type: functional, cell-based
HUVEC = test: Antiangiogenic activity against human HUVEC cells assessed as inhibition of cell migration at 0.5 uM measured after 24 hrs by scratch wound healing assay; assay type: functional, cell-based
K562 [5] = test: Induction of cell cycle arrest in human K562 cells assessed as reduction in accumulation of cells at G0/G1 phase incubated for 12 hrs by flow cytometry; assay type: functional, cell-based
[6] = Selectivity index, ratio of IC50 for cytotoxicity against human L02 cells to IC50 for cytotoxicity against human K562 cells; assay type: toxicity, cell-based; conditions: L02 cells and K562 cells, read-out: Ratio IC50
K562 [7] = test: Induction of cell cycle arrest in human K562 cells assessed as increase in accumulation of cells at G2/M phase incubated for 12 hrs by flow cytometry; assay type: functional, cell-based
K562 [8] = test: Induction of morphological changes in human K562 cells by fluorescence microscopic analysis; assay type: functional, cell-based
K562 [9] = test: Induction of apoptosis in human K562 cells at 0.5 uM incubated for 48 hrs by annexin V-FITC/propidium iodide staining based flow cytometry relative to control; assay type: functional
K562 [10] = test: Induction of cell cycle arrest in human K562 cells assessed as reduction in accumulation of cells at S phase incubated for 12 hrs by flow cytometry; assay type: functional, cell-based
HEL [11] = test: Induction of cell cycle arrest in human HEL cells assessed as reduction in accumulation of cells at G0/G1 phase incubated for 12 hrs by flow cytometry; assay type: functional, cell-based
[12] = Selectivity index, ratio of IC50 for cytotoxicity against human L02 cells to IC50 for cytotoxicity against human HEL cells
Tubulin (Homo sapiens) [13] = molecular target: T1, Tubulin (Homo sapiens) (UniProt P68371+Q9H4B7+P0DPH7+P68366+Q13509+Q71U36+P04350+Q3ZCM7+P07437+P68363+Q9BQE3+Q6PEY2+Q13885+Q9BVA1+Q9BUF5); test: Induction of microtubule depolymerization in human K562 cells at 500 nM incubated for 24 hrs by confocal microscopic analysis; assay type: cell-based
HEL [14] = test: Induction of cell cycle arrest in human HEL cells assessed as increase in accumulation of cells at G2/M phase incubated for 12 hrs by flow cytometry; assay type: functional, cell-based
Tubulin (Homo sapiens) [15] = molecular target: T1, Tubulin (Homo sapiens); test: Inhibition of microtubule polymerization in human K562 cells at 0.5 uM measured for 60 mins; assay type: cell-based
[16] = molecular target: Tubulin beta (Homo sapiens) (UniProt P68371+Q9H4B7+Q13509+P04350+Q3ZCM7+P07437+Q13885+Q9BVA1+Q9BUF5+A6NNZ2); test: Binding affinity to beta-tubulin colchicine binding site in human K562 cells assessed as inhibition of EBI-beta-tubulin adduct band formation preincubated for 2 hrs followed by EBI addition and measured after 1.5 hrs by EBI competition based Western blot analysis; assay type: cell-based; conditions: dose 0.2-25 µM, time 3.5 hrs
HEL [17] = test: Induction of apoptosis in human HEL cells at 0.5 uM incubated for 48 hrs by annexin V-FITC/propidium iodide staining based flow cytometry relative to control; assay type: functional
HEL [18] = test: Induction of cell cycle arrest in human HEL cells assessed as reduction in accumulation of cells at S phase incubated for 12 hrs by flow cytometry; assay type: functional, cell-based
Tubulin (Homo sapiens) [19] = molecular target: T1, Tubulin (Homo sapiens); test: Induction of microtubule depolymerization in human K562 cells assessed as aggregation of microtubule fibers at 100 nM incubated for 24 hrs by confocal microscopic analysis; assay type: cell-based
[20] = Homo sapiens, HeLa, 48 h, read-out: IC50

Compound	IC50 (HeLa; [20]) [nM]	IC50 (LNCaP) [nM]	IC50 (K562 [1]) [nM]	IC50 (HEL [2]) [nM]	Activity (HEL [4])	Activity (HUVEC)	Activity (K562 [8])	also measured
Cc1ccc2nc(C(F)(F)F)nc(N(C)c3ccc(C(F)(F)F)cc3)c2c1	2870	2660	1930	1400	–	–	–	–
COc1ccc(N(C)c2nc(C(F)(F)F)nc3cc(OC)c(OCCCN4CCCC4)cc23)cc1	445	172	2410	1570	–	–	–	–
COc1ccc(N(C)c2nc(C(F)(F)F)nc3ccc(Cl)cc23)cc1[N+](=O)[O-]	1000	589	177	397	Active	Active	Active	IC50 at 48 h [3]: 570 nM; Activity (K562 [5]): Active; selectivity ratio [6]: 3.22; Activity (K562 [7]): Active; Activity (K562 [9]): 12.7%; Activity (K562 [10]): Active
Cc1ccc2nc(C(F)(F)F)nc(N(C)c3ccc4c(ccn4C)c3)c2c1	1300	945	1210	992	–	–	–	–
COc1ccc(N(C)c2nc(C(F)(F)F)nc3ccc(F)cc23)cc1	110	377	265	99	Active	Active	Active	IC50 at 48 h [3]: 1950 nM; Activity (HEL [11]): Active; Ratio IC50 [12]: 19.7; Activity (K562 [5]): Active; selectivity ratio [6]: 7.36; Activity (Tubulin (Homo sapiens) [13]): Active; Activity (HEL [14]): Active; Activity (Tubulin (Homo sapiens) [15]): Active; Activity (K562 [7]): Active; Activity [16]: Dose-Dependent Effect; Activity (HEL [17]): 32.3%; Activity (K562 [9]): 19.9%; Activity (K562 [10]): Active; Activity (HEL [18]): Active
C=CC(=O)Nc1cc(N(C)c2nc(C(F)(F)F)nc3ccc(F)cc23)ccc1OC	165	402	986	422	–	–	–	–
CC(=O)O[C@H]1C(=O)[C@@]2(C)[C@H]([C@H](OC(=O)c3ccccc3)[C@]3(O)C[C@H](OC(=O)[C@H](O)[C@@H](NC(=O)c4ccccc4)c4ccccc4)C(C)=C1C3(C)C)[C@]1(OC(C)=O)CO[C@@H]1C[C@@H]2O [PACLITAXEL]	6	58	874	200	–	–	–	Activity (Tubulin (Homo sapiens) [19]): Active
COc1ccc(N(C)c2nc(C(F)(F)F)nc3ccc(Cl)cc23)cc1	332	143	294	294	Active	Active	Active	IC50 at 48 h [3]: 323 nM; Activity (HEL [11]): Active; Ratio IC50 [12]: 8.28; Activity (K562 [5]): Active; selectivity ratio [6]: 1.1; Activity (HEL [14]): Active; Activity (K562 [7]): Active; Activity (HEL [17]): 31%; Activity (K562 [9]): 19.7%; Activity (K562 [10]): Active; Activity (HEL [18]): Active
COc1cc2nc(C(F)(F)F)nc(N(C)c3ccc4c(ccn4C)c3)c2cc1O	1120	481	2260	468	–	–	–	–
COc1ccc(N(C)c2nc(C(F)(F)F)nc3cc(OC)c(O)cc23)cc1	–	1630	2520	4520	–	–	–	IC50 (HeLa; hela): Not Active
CN(c1ccc2c(ccn2C)c1)c1nc(C(F)(F)F)nc2ccc(Cl)cc12	335	138	684	89	Active	Active	Active	Activity (HEL [11]): Active; Ratio IC50 [12]: 3.45; Activity (HEL [14]): Active; Activity (HEL [17]): 28.5%; Activity (HEL [18]): Active
CN(c1ccc2c(ccn2C)c1)c1nc(C(F)(F)F)nc2ccc(F)cc12	22	96	450	363	Active	Active	Active	IC50 at 48 h [3]: 2830 nM; Activity (K562 [5]): Active; selectivity ratio [6]: 6.29; Activity (K562 [7]): Active; Activity (K562 [9]): 20.3%; Activity (K562 [10]): Active
CCN(CC)c1cc(N(C)c2nc(C(F)(F)F)nc3ccc(F)cc23)ccc1OC	8390	13300	21600	11700	–	–	–	–
COc1cc2c(c(OC)c1OC)-c1ccc(OC)c(=O)cc1[C@@H](NC(C)=O)CC2 [COLCHICINE]	15	245	975	156	–	–	–	–
COc1ccc(N(C)c2nc(C(F)(F)F)nc3ccc(C)cc23)cc1	141	237	3280	34	Active	Active	Active	Activity (HEL [11]): Active; Ratio IC50 [12]: 3.38; Activity (HEL [14]): Active; Activity (HEL [17]): 29.2%; Activity (HEL [18]): Active
COc1ccc(N(C)c2nc(C(F)(F)F)nc3ccc(Cl)cc23)c([N+](=O)[O-])c1	613	2590	2250	1320	–	–	–	–
CCNc1cc(N(C)c2nc(C(F)(F)F)nc3ccc(F)cc23)ccc1OC	201	2560	2420	6960	–	–	–	–
COc1ccc(N(C)c2nc(C(F)(F)F)nc3ccc(F)cc23)cc1NC(C)=O	46	810	1590	1120	–	–	–	–
COc1ccc(N(C)c2nc(C(F)(F)F)nc3ccc(F)cc23)cc1NC(=O)CCl	37	256	1390	595	–	–	–	–
CNc1cc(N(C)c2nc(C(F)(F)F)nc3ccc(F)cc23)ccc1OC	88	668	2250	273	–	–	–	–
